Assay results: patent US6953813B1, “2-Aminotetralin derivatives for the therapy of glaucoma” (Chiesi Farmaceutici S.p.A., priority 1999, dated 2005)

Legend:
pKa = assay type: physicochemical
Text: The higher apparent partition coefficient would be more favorable for ophthalmic absorption. However, an acid aqueous solution should be used as a vehicle for eyedrop administration due to the better chemical stability of CHF 1035 in such pH range. The theoretical log Papp of the corresponding not esterified derivative turned out to be −0.9 at pH 7.4.

[1] = test system: New-Zealand albino rabbits; assay: IOP after single dose in rabbits with water-increased IOP; assay type: in vivo, rabbit; details: two drops of 5% solution per eye, one hour before 200 ml oral water
Method: A study versus placebo was carried out in 20 New-Zealand albino rabbits to evaluate the effects of CHF 1035 after single administration. Basal intraocular pressure (IOP) was measured in anaesthetized rabbits in both eyes. Each eye received two drops of physiological solution containing 5% of the drug. Control animals received only physiological solution. After one hour, the animals were administered by oral route with a total amount of 200 ml of distilled water. IOP increased within about one hour and normalized after about 3 hours. As no differences in IOP were observed between the two eyes, the respective tonometric curves were superimposed. IOP measurements were carried out by using a Goldman tonometer and were repeated one hour after the administration of water.
Values are expressed as mean (SE^132 1.6-2.7). The total number of eyes per group is in brackets.

[2] = test system: normotensive Dutch Belted rabbits; assay: Intraocular pressure (IOP) after single dose in normotensive rabbits; assay type: in vivo, rabbit
Method: Water (pH 4.5, made isotonic with sodium chloride), was selected as vehicle for the IOP-studies.
Five concentrations (0.01, 0.05, 0.2, 0.5 and 1.0% w/v) of CHF 1035 were studied. Brimonidine (0.2% w/v) was used as a positive, and vehicle (water pH 4.5) as a negative control.
The experimental animals used were normotensive Dutch Belted rabbits of either gender (n=6). A single drop (25 μl) of the test solution was instilled unilaterally into the left eye (treated eye). IOP of the rabbits (treated and untreated eyes) was measured at 1 and 0 h before, and at 0.5, 1, 2, 3, 4, 5, 6 and 7 h after topical eyedrop administration. IOP at the time of eyedrop administration (0 h) was used as a baseline value. IOP was measured using a BioRad Pneumatonometer. More detailed description of the IOP measurement procedure can be found in Pharm. Res. 14, 1738-1743, 1997 and Curr. Eye Res. 14, 791-797, 1995. All the studies were set up using a randomized crossover design. At least 72 h of wash-out time was allowed for each rabbit between dosings. The irritation caused by an instilled eyedrop were evaluated by recording the extent of eyelid closure after topical eyedrop administration.

[3] = test system: New-Zealand albino rabbits; assay: IOP after repeated administration in rabbits with α-chymotrypsin-increased IOP; assay type: in vivo, rabbit; details: two drops of 5% solution per eye every 6 hours
Method: The effectiveness of CHF 1035 after repeated administration was tested in a study versus placebo, in 20 New-Zealand albino rabbits. In order to induce a chronic increase of the IOP, each animal was intraocularly injected with 0.5 mg/day of α-chymotrypsin for five days. Starting from the first day of treatment, two drops of physiological saline containing 5% of the drug were instilled in each eye every 6 hours. The control animals only received physiological saline.
The IOP measurement was performed as described in example 1, before the injection and subsequently every day until the 10th day.
FIG. 2 reports the effect of CHF 1035 on rabbit IOP after α-chymotrypsin injection. Values are reported as mean (SE=1.2-2.6; n=20 per group).

[4] = topical single dose, normotensive rabbits

## CNC1CCc2c(ccc(OC(=O)C(C)C)c2OC(=O)C(C)C)C1 (racemic) [CHF 1035, (±)-(R,S)-5,6-diisobutyryloxy-2-methylaminotetralin]
pKa
  pKa: 9.4
[1]
  IOP after water loading versus control animals: IOP value significantly lower than control animals
[2]; normotensive rabbits
  duration of action compared with brimonidine: longer duration of action than brimonidine
  effectiveness in decreasing IOP compared with brimonidine: more effective in decreasing IOP than brimonidine
  onset of action: late onset of action
[2]; [4]
  IOP decrease in the untreated eye: no significant IOP decrease is observed in the untreated eye
  effect on IOP in the treated eye: decreases significantly the IOP in the treated eye
[2]; 0.01% w/v, 0 min
  IOP changes (mean ± SEM) in the treated eye: 0.0 ± 0.0 mmHg
  IOP changes (mean ± SEM) in the untreated eye: 0.0 ± 0.0 mmHg
[2]; 0.01% w/v, 30 min
  IOP changes (mean ± SEM) in the treated eye: −1.9 ± 0.9 mmHg
  IOP changes (mean ± SEM) in the untreated eye: −1.0 ± 1.1 mmHg
[2]; 0.01% w/v, 60 min
  IOP changes (mean ± SEM) in the treated eye: −4.2 ± 1.1 mmHg
  IOP changes (mean ± SEM) in the untreated eye: −1.9 ± 1.2 mmHg
[2]; 0.01% w/v, 120 min
  IOP changes (mean ± SEM) in the treated eye: −5.3 ± 0.7 mmHg
  IOP changes (mean ± SEM) in the untreated eye: −1.6 ± 1.0 mmHg
[2]; 0.01% w/v, 180 min
  IOP changes (mean ± SEM) in the treated eye: −5.0 ± 1.0 mmHg
  IOP changes (mean ± SEM) in the untreated eye: −0.5 ± 0.7 mmHg
[2]; 0.01% w/v, 240 min
  IOP changes (mean ± SEM) in the treated eye: −4.5 ± 1.3 mmHg
  IOP changes (mean ± SEM) in the untreated eye: −1.4 ± 0.7 mmHg
[2]; 0.01% w/v, 300 min
  IOP changes (mean ± SEM) in the treated eye: −4.3 ± 0.9 mmHg
  IOP changes (mean ± SEM) in the untreated eye: −1.7 ± 0.4 mmHg
[2]; 0.01% w/v, 360 min
  IOP changes (mean ± SEM) in the treated eye: −2.6 ± 0.6 mmHg
  IOP changes (mean ± SEM) in the untreated eye: 0.0 ± 0.6 mmHg
[2]; 0.01% w/v, 420 min
  IOP changes (mean ± SEM) in the treated eye: −1.3 ± 0.8 mmHg
  IOP changes (mean ± SEM) in the untreated eye: 0.4 ± 0.7 mmHg
[2]; 0.05% w/v, 0 min
  IOP changes (mean ± SEM) in the treated eye: 0.0 ± 0.0 mmHg
  IOP changes (mean ± SEM) in the untreated eye: 0.0 ± 0.0 mmHg
[2]; 0.05% w/v, 30 min
  IOP changes (mean ± SEM) in the treated eye: −0.4 ± 0.5 mmHg
  IOP changes (mean ± SEM) in the untreated eye: 0.0 ± 0.6 mmHg
[2]; 0.05% w/v, 60 min
  IOP changes (mean ± SEM) in the treated eye: −3.3 ± 0.4 mmHg
  IOP changes (mean ± SEM) in the untreated eye: 0.1 ± 0.7 mmHg
[2]; 0.05% w/v, 120 min
  IOP changes (mean ± SEM) in the treated eye: −6.5 ± 0.9 mmHg
  IOP changes (mean ± SEM) in the untreated eye: −1.5 ± 0.8 mmHg
[2]; 0.05% w/v, 180 min
  IOP changes (mean ± SEM) in the treated eye: −6.3 ± 0.9 mmHg
  IOP changes (mean ± SEM) in the untreated eye: −0.4 ± 1.0 mmHg
[2]; 0.05% w/v, 240 min
  IOP changes (mean ± SEM) in the treated eye: −6.7 ± 0.8 mmHg
  IOP changes (mean ± SEM) in the untreated eye: −1.0 ± 0.4 mmHg
[2]; 0.05% w/v, 300 min
  IOP changes (mean ± SEM) in the treated eye: −6.4 ± 0.8 mmHg
  IOP changes (mean ± SEM) in the untreated eye: −1.9 ± 0.9 mmHg
[2]; 0.05% w/v, 360 min
  IOP changes (mean ± SEM) in the treated eye: −5.5 ± 0.7 mmHg
  IOP changes (mean ± SEM) in the untreated eye: −0.6 ± 1.2 mmHg
[2]; 0.05% w/v, 420 min
  IOP changes (mean ± SEM) in the treated eye: −4.3 ± 0.5 mmHg
  IOP changes (mean ± SEM) in the untreated eye: 0.3 ± 0.7 mmHg
[2]; 0.2% w/v, 0 min
  IOP changes (mean ± SEM) in the treated eye: 0.0 ± 0.0 mmHg
  IOP changes (mean ± SEM) in the untreated eye: 0.0 ± 0.0 mmHg
[2]; 0.2% w/v, 30 min
  IOP changes (mean ± SEM) in the treated eye: 0.8 ± 0.9 mmHg
  IOP changes (mean ± SEM) in the untreated eye: 1.0 ± 0.8 mmHg
[2]; 0.2% w/v, 60 min
  IOP changes (mean ± SEM) in the treated eye: −0.4 ± 1.1 mmHg
  IOP changes (mean ± SEM) in the untreated eye: 0.5 ± 1.2 mmHg
[2]; 0.2% w/v, 120 min
  IOP changes (mean ± SEM) in the treated eye: −2.1 ± 0.7 mmHg
  IOP changes (mean ± SEM) in the untreated eye: 0.0 ± 0.9 mmHg
[2]; 0.2% w/v, 180 min
  IOP changes (mean ± SEM) in the treated eye: −6.0 ± 0.9 mmHg
  IOP changes (mean ± SEM) in the untreated eye: −1.5 ± 1.2 mmHg
[2]; 0.2% w/v, 240 min
  IOP changes (mean ± SEM) in the treated eye: −6.3 ± 1.0 mmHg
  IOP changes (mean ± SEM) in the untreated eye: −1.6 ± 1.1 mmHg
[2]; 0.2% w/v, 300 min
  IOP changes (mean ± SEM) in the treated eye: −7.6 ± 1.5 mmHg
  IOP changes (mean ± SEM) in the untreated eye: −1.1 ± 1.1 mmHg
[2]; 0.2% w/v, 360 min
  IOP changes (mean ± SEM) in the treated eye: −6.9 ± 1.0 mmHg
  IOP changes (mean ± SEM) in the untreated eye: −0.7 ± 1.0 mmHg
[2]; 0.2% w/v, 420 min
  IOP changes (mean ± SEM) in the treated eye: −5.7 ± 1.1 mmHg
  IOP changes (mean ± SEM) in the untreated eye: 0.0 ± 0.8 mmHg
[2]; 0.5% w/v, 0 min
  IOP changes (mean ± SEM) in the treated eye: 0.0 ± 0.0 mmHg
  IOP changes (mean ± SEM) in the untreated eye: 0.0 ± 0.0 mmHg
[2]; 0.5% w/v, 30 min
  IOP changes (mean ± SEM) in the treated eye: 1.8 ± 0.6 mmHg
  IOP changes (mean ± SEM) in the untreated eye: 2.9 ± 0.8 mmHg
[2]; 0.5% w/v, 60 min
  IOP changes (mean ± SEM) in the treated eye: 1.2 ± 0.7 mmHg
  IOP changes (mean ± SEM) in the untreated eye: 2.4 ± 0.7 mmHg
[2]; 0.5% w/v, 120 min
  IOP changes (mean ± SEM) in the treated eye: 0.1 ± 0.7 mmHg
  IOP changes (mean ± SEM) in the untreated eye: 1.4 ± 0.4 mmHg
[2]; 0.5% w/v, 180 min
  IOP changes (mean ± SEM) in the treated eye: −5.0 ± 1.2 mmHg
  IOP changes (mean ± SEM) in the untreated eye: 0.0 ± 0.5 mmHg
[2]; 0.5% w/v, 240 min
  IOP changes (mean ± SEM) in the treated eye: −5.6 ± 0.6 mmHg
  IOP changes (mean ± SEM) in the untreated eye: −0.2 ± 0.7 mmHg
[2]; 0.5% w/v, 300 min
  IOP changes (mean ± SEM) in the treated eye: −7.9 ± 0.9 mmHg
  IOP changes (mean ± SEM) in the untreated eye: −0.9 ± 0.4 mmHg
[2]; 0.5% w/v, 360 min
  IOP changes (mean ± SEM) in the treated eye: −6.9 ± 0.8 mmHg
  IOP changes (mean ± SEM) in the untreated eye: −0.7 ± 0.6 mmHg
[2]; 0.5% w/v, 420 min
  IOP changes (mean ± SEM) in the treated eye: −7.0 ± 0.8 mmHg
  IOP changes (mean ± SEM) in the untreated eye: −0.2 ± 0.3 mmHg
[2]; 1.0% w/v, 0 min
  IOP changes (mean ± SEM) in the treated eye: 0.0 ± 0.0 mmHg
  IOP changes (mean ± SEM) in the untreated eye: 0.0 ± 0.0 mmHg
[2]; 1.0% w/v, 30 min
  IOP changes (mean ± SEM) in the treated eye: 1.3 ± 0.9 mmHg
  IOP changes (mean ± SEM) in the untreated eye: 2.2 ± 0.9 mmHg
[2]; 1.0% w/v, 60 min
  IOP changes (mean ± SEM) in the treated eye: 0.4 ± 1.0 mmHg
  IOP changes (mean ± SEM) in the untreated eye: 1.2 ± 1.2 mmHg
[2]; 1.0% w/v, 120 min
  IOP changes (mean ± SEM) in the treated eye: 0.1 ± 0.9 mmHg
  IOP changes (mean ± SEM) in the untreated eye: 1.0 ± 0.8 mmHg
[2]; 1.0% w/v, 180 min
  IOP changes (mean ± SEM) in the treated eye: −3.2 ± 1.8 mmHg
  IOP changes (mean ± SEM) in the untreated eye: −2.5 ± 1.3 mmHg
[2]; 1.0% w/v, 240 min
  IOP changes (mean ± SEM) in the treated eye: −4.9 ± 1.5 mmHg
  IOP changes (mean ± SEM) in the untreated eye: −1.8 ± 0.6 mmHg
[2]; 1.0% w/v, 300 min
  IOP changes (mean ± SEM) in the treated eye: −5.8 ± 1.6 mmHg
  IOP changes (mean ± SEM) in the untreated eye: −0.7 ± 0.8 mmHg
[2]; 1.0% w/v, 360 min
  IOP changes (mean ± SEM) in the treated eye: −6.6 ± 1.6 mmHg
  IOP changes (mean ± SEM) in the untreated eye: −0.2 ± 1.1 mmHg
[2]; 1.0% w/v, 420 min
  IOP changes (mean ± SEM) in the treated eye: −5.3 ± 1.5 mmHg
  IOP changes (mean ± SEM) in the untreated eye: −0.9 ± 1.0 mmHg
[3]
  tolerability during the whole cycle of treatment: well tolerated during the whole cycle of treatment and induced no eye irritation and/or discomfort
[3]; up to 10th day
  IOP after α-chymotrypsin injection versus placebo: significantly lower IOP than animals treated with placebo
